Laboratory results published in paper PMC5456383 (PLoS ONE, 2017).
Where two headings read alike, the source gives them in different places.

What was measured:
[1] = test system: clinical isolates of A. felis from cats with invasive aspergillosis; settings: cited from earlier work
Text: Echinocandins have concentration-dependent activity against Aspergillus spp.

[2] = concentration independent, cited from earlier work
Text: The relationship between antifungal in vivo susceptibility, dosages, drug concentrations within various body compartments and toxicological effects are not completely understood. […] For example, in sino-orbital aspergillosis systemic therapy may not be sufficient to penetrate the site of infection and reduce fungal burden. In addition, our work here is based upon total plasma concentra ...

[3] = caspofungin-treated patients with candidemia; cited from earlier work
[4] = test system: invasive pulmonary aspergillosis; settings: cited from earlier work
[5] = parameters: Time at which steady state was achieved: dose or concentration left out as unconfirmed; settings: cited from earlier work
[6] = Tolerability of IV caspofungin in healthy cats (physical examination, blood count, biochemistry)
Experimental: (§1) Cats were housed individually and acclimatized to the clinical environment for three days prior to the start of the study with free access to food and water.
(§2) For drug administration, a peripheral catheter (22G IV radiopaque catheter; OPTIVA®, Smiths Medical International Ltd, Lanchashire, UK) was placed into a cephalic vein.
(§3) Blood samples were immediately centrifuged (12, 000 g for 5 min) and plasma was stored at -80°C until assay.

[7] = Population pharmacokinetic modeling of caspofungin plasma concentrations in healthy cats (HPLC-MS/MS, NONMEM)
Experimental: as §1, §2, §3
Pharmacokinetic model development employed nonlinear mixed-effects modeling using NONMEM version 7.3 [17], with the Wings for NONMEM 7.3interface (http://wfn.sourceforge.net) and IFort compiler. […] Data manipulation and post-run processing of NONMEM output was conducted using the R data analysis language (Version 3.2.2) and the packages ggplot2, GGally, foreign, tidyr, Hmisc, gdata, doBy, plyr, grid, stringr with associated dependencies [17–28].
The base pharmacokinetic model was developed in a step-wise manner. Pharmacokinetic models were coded using the built-in ADVAN subroutines of NONMEM. Linear kinetic models with 1 and 2 compartments were evaluated. The First Order Conditional Estimation (FOCE) method was used to fit models. The base model was selected on the basis of mechanistic plausibility, visual inspection of goodness-of-fit diagnostic plots, the precision of parameter estimates (se% <30% for fixed, <50% for random effects parameters), and the lowest value of the Akaike’s information criterion (AIC; Eq 1) in accordance with the number of parameters and the final NONMEM derived objective function value (OBJ). The base model was also required to pass the covariance step.
Unless stated otherwise, population parameter variability (PPV) was represented using an exponential error model (Eq 2): Pj=TVP*e^ηj (2) where Pj is the individual value for the parameter in the j^th individual, TVP is the typical population value of P and ηj is an independent random variable with a mean of zero and variance ω^2. PPV was systematically examined on each fixed-effect parameter. Models with and without covariance for P were investigated using the OMEGA BLOCK functionality of NONMEM.
The influence of the additive component of the error was also examined by a comparison with a proportional only error model.

[8] = cats, 1 mg/kg IV infusion over 1 h, two-compartment model, scaled to 4 kg

In the case of CC[C@H](C)C[C@H](C)CCCCCCCCC(=O)N[C@H]1C[C@@H](O)[C@@H](NCCN)NC(=O)[C@@H]2[C@@H](O)CCN2C(=O)[C@H]([C@H](O)CCN)NC(=O)[C@H]([C@H](O)[C@@H](O)c2ccc(O)cc2)NC(=O)[C@@H]2C[C@@H](O)CN2C(=O)[C@H]([C@@H](C)O)NC1=O [caspofungin, caspofungin acetate], the MEC ([1]; clinical isolates of A. felis from cats, all except one isolate) is listed as “less than 0.06 μg/mL”, the MEC ([1]; one clinical isolate of A. felis) is listed as 2 µg/mL and the “Unbound fraction in serum” value ([2]; human serum) is listed as 3–4%. The “Unbound fraction in serum” value ([2]; mouse serum) was 3–4%, the Frequency of chills [3] was 5.3% and the Frequency of fever [3] was 7.5%. For the same molecule, the “Frequency of liver enzyme elevations (ALT, AST or ALP)” value [3] was 13.9%, the “Frequency of nausea or vomiting” value [3] was 5.3% and the Frequency of phlebitis [3] was 3.5%. The “Fungal burden versus mice dosed with 1 mg/kg q6 h” value ([4]; mice dosed with 1 mg/kg q24 h or 2 mg/kg q48 h) was “significantly lower fungal burdens”, the “Effect on fungal growth at higher doses” value ([4]; mice, 4 mg/kg, Cmax: MEC >20) was “paradoxical effect on fungal growth resulting in increased burdens” and the “Clearance in the typical 70 kg human” value [5] was 10 mL/min. The “Trough concentration at steady state” value ([5]; humans given 70 mg/kg of caspofungin daily) was 2.57 ± 0.34 µg/mL, the “Time at which steady state was achieved” value ([5]; humans given of caspofungin daily) was “during the third week of administration” and the Liver enzyme elevations ([6]; healthy cats, 1 mg/kg IV daily) was “did not occur in any cats”. For the same molecule, the Tolerability ([6]; healthy cats, 1 mg/kg IV over 1 h, single and 7 daily doses) was “well tolerated”, the “Changes on complete blood counts and multiple biochemical analyses” value ([6]; healthy cats, after consecutive daily dosing 1 mg/kg IV) was “no changes” and the “Body temperature during minor transient hyperthermia” value ([6]; one cat, during the first infusion only, reference range 37.5–39.1°C) was 39.6–39.8 °C. The Diarrhoea ([6]; one cat, resolved within 24 h of the final infusion) was “mild transient diarrhoea”, the clearance ([7]; both, domestic shorthair, plasma, iv, 1 mg/kg) was 0.292 mL/min and the “Q (mL/h) * (WT/4)^0.75, inter-compartmental clearance, population estimate” value [7, 8] was 150 mL/h. For the same molecule, the “V1 (mL) * (WT/4), central volume of distribution, population estimate” value [7, 8] was 214 mL, the “V2 (mL) * (WT/4), peripheral volume of distribution, population estimate” value [7, 8] was 143 mL and the “Time at which steady state was achieved” value ([7]; cats, daily IV dosing) was “approximately 72 h”.
